The IC50 is the concentration that inhibits the measured activity by half.

Each structure is given as a SMILES string. Several values for one entry are separate records, joined by “and”; a condition that tells them apart may be missing. Equal entries are not always repeated.

The subject of data set [1] is NMDA plus glycine-evoked [3H]-D-aspartic acid release from rat spinal synaptosomes. The experiment in a line: Inhibition of NMDA+glycine-induced glutamate ([3H]-D-Asp) release from rat spinal synaptosomes (Example 2). It counts as biochemical. As to conditions: for IC50: rat spinal synaptosomes, 10 μM NMDA plus 1 μM glycine, read-out: estimated IC50 for inhibition of NMDA plus glycine-evoked [3H]-D-aspartic acid release; for Percent inhibition of NMDA + glycine-induced glutamate release from rat spinal synaptosomes: mean ± S.E.M. of 3 to 6 experiments. Here is the method: Rat spinal synaptosomes, free from glial contaminants, were prepared according to the method of Paluzzi S. et al., 2007, a modification of the method of Nakamura et al., 1993, as follows.
Sprague-Dawley rats aged between 90 to 130 days were used. Animals were housed at constant temperature (22±1° C.) and relative humidity (50%) under a regular light-dark schedule (lights 7.00 am-7.00 pm). Food and water were freely available.
Rats were sacrificed by decapitation and the whole spinal cord was rapidly removed and maintained at 4° C. Rat spinal cord was homogenized (90 rpm; 24 up-down strokes in 2 min) in 10 volumes (1 g tissue in 10 ml) of ice cold 0.32 M sucrose, buffered at pH 7.4 using a glass-teflon tissue grinder (clearance 0.25 mm). The homogenate was centrifuged (5 min, 1000 g at 4° C.) to remove nuclei and debris, and the supernatant was gently stratified at 0-4° C. on a discontinuous Percoll® (Sigma Aldrich, St Louis, Mo., USA) gradient (2, 6, 10 and 20% v/v in Tris-buffered sucrose) and centrifuged at 33,500 g for 5 min. The layer between 10 and 20% Percoll (i.e. the synaptosomal fraction) was collected and washed by centrifugation in physiological medium having the following composition (mM): NaCl, 140; KCl, 3; MgSO4 1.2; NaH2PO4, 1.2; NaHCO3 5; CaCl2 1.2; HEPES 10; glucose, 10; pH 7.4. Protein content was measured according to Bradford M M, 1976 using bovine serum albumin as a standard.
Synaptosomes (about 70 μg protein) were incubated at 37° C. for 15 min in 2.5 mL of 0.05 μM [^3H]-D-aspartate ([^3H]-D-Asp; Perkin Elmer Italia, Monza, Milano, Italy). Then, the suspension was diluted to 122.5 mL with physiological medium maintained at 37° C. and 5 mL aliquots of the synaptosomal suspension were layered on microporous filters placed at the bottom of a set of 24 parallel 25 mL superfusion chambers maintained at 37° C. (Superfusion system, Ugo Basile, Comerio, Varese, Italy). Superfusion was then started with physiological medium at a rate of 0.5 mL/min, and was continued for 46 min. Starting at t=37 min, nine consecutive 1-min filtrate samples were collected. NMDA (10 μM) and glycine (1 μM) were introduced at the end of the first sample collected and maintained until the end of the experiment.
The radioactivity contained in each filtrate sample was measured by scintillographic methods, using a Ultima Gold scintillation fluid (Perkin-Elmer Milan, Italy). Each whole 0.5 mL sample was counted for radioactivity by adding 3 mL of scintillation fluid.
Tritium content measured in each sample was expressed as fractional percent (i.e. percent content of each sample with respect to total [^3H] content at the onset of the respective collection period). Drug effects were evaluated by calculating the ratio between the effluxes in the seventh fraction collected (in which the maximum effect of NMDA was reached) and that of the first fraction (basal release, prior to application of NMDA+glycine). This ratio was compared to the same seventh- and first-fraction ratio obtained under control conditions.
The possible effects of racemic and non-racemic dimiracetam mixtures on NMDA plus glycine-induced neurotransmitter release from rat spinal cord synaptosomes were assessed.

Data set [2] is described as follows: Rat plasma concentration-time profiles after oral administration. It counts as in vivo. As to conditions: for rat plasma concentration-time profiles after oral administration: 75 mg/kg p.o. enantiomer vs 150 mg/kg p.o. racemate (FIG. 4A, 4B); for interconversion of enantiomers in vivo: rat, oral administration. The protocol:
FIG. 4A: Comparison of the plasma concentration-time profiles of the (R)-enantiomer after oral administration of (R)-dimiracetam (75 mg/kg) and after oral administration of racemic dimiracetam (150 mg/kg)
FIG. 4B: Comparison of the plasma concentration-time profiles of the (S)-enantiomer after oral administration of (S)-dimiracetam (2) (75 mg/kg) and after oral administration of racemic dimiracetam (150 mg/kg).

Data set [3] relates to rats pre-treated with 2′,3′-dideoxycytidine (ddC, zalcitabine). The following applies: cited from earlier work.
Data set [4] concerns NMDA+glycine-induced [3H]-D-aspartate release in rat spinal cord synaptosomes. The experiment in a line: In vitro inhibition of pre-loaded [3H]-D-aspartate release induced by NMDA+glycine in rat spinal cord synaptosomes (Example 5). It counts as biochemical. The following applies: tested at 10 nM. Here is the method:
These experiments were performed following the previously published methodology (Fariello et al. Neuropharmacology. 2014, (81), 85-94) and the results are shown in FIG. 5.

Data set [5] deals with rats with oxaliplatin-induced mechanical hyperalgesia. The experiment in a line: Paw pressure test (Randall & Selitto) in oxaliplatin model. As to conditions: oxaliplatin 2.4 mg/kg i.p. Format: in vivo, rat. Here is the method:
Paw mechanical sensitivity was determined using a Randall & Selitto apparatus (Randall and Selitto, 1957) exerting a force that increases at constant rate (32 g/s). The stimulus causing paw withdrawal was evaluated before and at different times after treatment. Results represent the mean of mechanical thresholds for paw withdrawal expressed as grams. To avoid possible damage to the rat paw the maximum applied force was set at 240 g. In the single administration protocol, paw pressure tests were performed before (pre-dose) and at regular intervals after treatment.
Peripheral sensory neuropathy was induced in adult rats, by administration of oxaliplatin (Tocris) at 2.4 mg/kg i.p. in saline once daily for 5 consecutive days every week for three weeks (cumulative dose 36 mg/kg) according to Cavaletti et al., 2001. Starting from day 21 after the first oxaliplatin administration, the effect of repeated oral administration of racemic dimiracetam or the preferred inventive composition with an enantiomeric excess of (R)-dimiracetam of 50% corresponding to a 3:1 (R):(S) ratio of the enantiomers on oxaliplatin-induced mechanical hyperalgesia was assessed.
After repeated oral administration of either racemic dimiracetam or the preferred inventive composition with an enantiomeric excess of (R)-dimiracetam of 50%, oxaliplatin-induced mechanical hyperalgesia was measured. Pain threshold was assessed by a Randall & Selitto analgesymeter before the morning administration. […] Development of tolerance was not observed.
(§1) After repeated oral administration of either racemic dimiracetam or the preferred inventive composition with an enantiomeric excess of (R)-dimiracetam of 50%, oxaliplatin-induced mechanical hyperalgesia was measured. Pain threshold was assessed by a Randall & Selitto analgesymeter (Leighton et al. Br. J. Pharmacol. 93:553-560, 1988) before the morning administration. In the morning of day 28, also mechanical allodynia (Sakurai et al. Pain 147:165-74, 2009) and cold sensitivity were assessed, using the von Frey and cold plate tests (Di Cesare Mannelli et al. Exp Neurol 261:22-33, 2014), respectively. […] Development of tolerance was not observed.
Paw mechanical sensitivity was determined using a Randall & Selitto apparatus exerting a force that increases at constant rate (32 g/s). The stimulus at which rats withdrew the paw was evaluated before and at different times after treatment. Results represent the mean of mechanical thresholds expressed as grams. To avoid any possible damage to the animal paw the maximum applied force was fixed at 240 g (Leighton et al. Br. J. Pharmacol. 93:553-560, 1988).

The test system of data set [6] is rats with oxaliplatin-induced mechanical allodynia. The experiment in a line: Von Frey test in oxaliplatin model. The following applies: oxaliplatin 2.4 mg/kg i.p. Format: in vivo, rat. Here is the method: as §1
The animals were placed in 20 cm×20 cm Plexiglas boxes equipped with a metallic mesh floor, 20 cm above the bench. Animals were allowed to habituate themselves to their environment for 15 min before the test. An electronic Von Frey hair unit (Ugo Basile, Varese, Italy) was used: the withdrawal threshold was evaluated by applying forces ranging from 0 to 50 g with a 0.2 g accuracy. […] The paw sensitivity threshold was defined as the minimum force required to elicit a robust and immediate withdrawal reflex of the paw. Voluntary movements associated with locomotion were not considered as a withdrawal response. Stimuli were applied to each posterior paw at 5 s intervals. Measurements were repeated 5 times and the final value was obtained by averaging the 5 measurements (Sakurai et al. Pain 147:165-74, 2009).

In data set [7] the test system is rats with oxaliplatin-induced cold sensitivity. The experiment in a line: Cold plate test in oxaliplatin model. Format: in vivo, rat. As to conditions: oxaliplatin 2.4 mg/kg i.p. The protocol:
as §1
The animals were placed in a stainless box (12 cm×20 cm×10 cm) with a cold plate as floor. The temperature of the cold plate was kept constant at 4° C.±1° C. Pain-related behaviors (i.e. lifting and licking of the hind paw) were observed and the time (s) of the first sign was recorded. The cut-off time of the latency of paw lifting or licking was set at 60 s (Di Cesare Mannelli et al. Exp Neurol 261:22-33, 2014).

For data set [8], the system named is NMDA-plus-glycine-triggered release of [3H]-D-aspartate in synaptosomal preparations of the hippocampus. As to conditions: hippocampus synaptosomes; read-out: IC50 for inhibiting NMDA-plus-glycine-triggered release of [3H]-D-aspartate; cited from earlier work.
Data set [9] has as its system NMDA-plus-glycine-triggered [3H]-D-aspartate release in synaptosomal preparations of the spinal cord. As to conditions: spinal cord synaptosomes; read-out: IC50 for inhibiting NMDA-plus-glycine-triggered [3H]-D-aspartate release; cited from earlier work.

`O=C1CN2C(=O)CC[C@@H]2N1` [(R)-dimiracetam, (R)-3,6,7,7a-tetrahydro-1H-pyrrolo[1,5-a]imidazole-2,5-dione]: in data set [1], the IC50 is 123 nM. For the same compound, in [2], the “rat plasma concentration-time profiles after oral administration” value is given as “identical” and the “interconversion of enantiomers in vivo” value is on record as “do not to interconvert in vivo”. Further, the “efficacy response after a single oral dose” value (shortened to “efficacy response”) in data set [3] is on record as “partial efficacy response”.

`O=C1CN2C(=O)CCC2N1` (racemic) [racemic dimiracetam, (RS)-3,6,7,7a-tetrahydro-1H-pyrrolo[1,5-a]imidazole-2,5-dione]: the “Percent inhibition of NMDA + glycine-induced glutamate release from rat spinal synaptosomes” value in data set [1] (0.1 nM) is 9 ± 13%; in [1] (1 nM), 29 ± 3%; in [1] (10 nM), 35 ± 4%. Moreover, in data set [1] (at a concentration of 10 nM), the “inhibition of NMDA plus glycine-evoked [3H]-D-aspartic acid release” value amounted to 36%. In addition, the IC50 in data set [1] was 14.6 nM and 15 nM; in data set [8], roughly 3000 nM; in [9], roughly 20 nM. Besides, in data set [4], the “% inhibition (mean)” value was 35.4%. The “Randall & Selitto, paw pressure, Day 28” value is 48.7 ± 2.5 g in data set [5] (15 mg/kg b.i.d.) and 55.2 ± 1.0 g in data set [5] (50 mg/kg b.i.d.). For the same compound, the “Randall & Selitto, paw pressure, Pre-test” value is listed as 68.1 ± 1.2 g in [5] (15 mg/kg b.i.d.) and 67.1 ± 0.8 g in data set [5] (50 mg/kg b.i.d.). For the same compound, the “Von Frey paw withdrawal, Day 28” value is given as 16.0 ± 1.5 g in [6] (15 mg/kg b.i.d.) and 18.5 ± 2.3 g in data set [6] (50 mg/kg b.i.d.). In addition, the “Von Frey paw withdrawal, Pre-test” value in data set [6] (15 mg/kg b.i.d.) amounted to 21.4 ± 1.0 g; in [6] (50 mg/kg b.i.d.) it was 21.4 ± 0.5 g. Also, the “Cold plate, licking latency, Day 28” value came to 14.8 ± 1.5 s in [7] (15 mg/kg b.i.d.) and 15.4 ± 1.0 s in data set [7] (50 mg/kg b.i.d.). Further, the “Cold plate, licking latency, Pre-test” value was 21.5 ± 1.0 s in [7] (15 mg/kg b.i.d.) and 22.0 ± 0.8 s in data set [7] (50 mg/kg b.i.d.). In addition, the “efficacy response” value in data set [3] was “superior response compared to either (R)- or (S)-dimiracetam alone”.

Regarding `O=C1CN2C(=O)CC[C@H]2N1` [(S)-dimiracetam, (S)-3,6,7,7a-tetrahydro-1H-pyrrolo[1,5-a]imidazole-2,5-dione], in data set [1], the concentration for half-maximal inhibition (IC50) is 418 nM. Further, in [2], the “rat plasma concentration-time profiles after oral administration” value is given as “identical” and the “interconversion of enantiomers in vivo” value is given as “do not to interconvert in vivo”. Also, the “efficacy response” value in data set [3] is recorded as “smaller response than the corresponding dose of the (R)-enantiomer”.

These data come from US10738054B2, “Synergistic compositions comprising (R)-dimiracetam (1) and (S)-dimiracetam (2) in a non-racemic ratio” (Metys Pharmaceuticals AG, priority 2017, dated 2020).
